From patent publication US20110053900A1, “PROGESTERONE ANTAGONISTS SUCH AS CDB-4124 IN THE TREATMENT OF BREAST CANCER” (Repros Therapeutics inc, priority 2008, published 2011)

How the values were obtained:
[1] = Animal weight during the study; type: in vivo; settings: weighed weekly, 27-week study period
Description: The weights of the control animals were compared to those receiving hormonal treatment to better assess toxicity, especially that due to CDB-4124. The animals were weighed weekly during the 27-week study period.

[2] = target: T1, glucocorticoid receptor (rbGR) (Oryctolagus cuniculus, UniProt P59667); test: Glucocorticoid receptor binding; parameters: species or system rabbit
T1 construct: cytosol containing PR or GR were prepared in TEGMD buffer; from tissue; host or cells: thymus of estradiol-primed immature rabbits (cytosol)
T1 sequence (P59667 1-772): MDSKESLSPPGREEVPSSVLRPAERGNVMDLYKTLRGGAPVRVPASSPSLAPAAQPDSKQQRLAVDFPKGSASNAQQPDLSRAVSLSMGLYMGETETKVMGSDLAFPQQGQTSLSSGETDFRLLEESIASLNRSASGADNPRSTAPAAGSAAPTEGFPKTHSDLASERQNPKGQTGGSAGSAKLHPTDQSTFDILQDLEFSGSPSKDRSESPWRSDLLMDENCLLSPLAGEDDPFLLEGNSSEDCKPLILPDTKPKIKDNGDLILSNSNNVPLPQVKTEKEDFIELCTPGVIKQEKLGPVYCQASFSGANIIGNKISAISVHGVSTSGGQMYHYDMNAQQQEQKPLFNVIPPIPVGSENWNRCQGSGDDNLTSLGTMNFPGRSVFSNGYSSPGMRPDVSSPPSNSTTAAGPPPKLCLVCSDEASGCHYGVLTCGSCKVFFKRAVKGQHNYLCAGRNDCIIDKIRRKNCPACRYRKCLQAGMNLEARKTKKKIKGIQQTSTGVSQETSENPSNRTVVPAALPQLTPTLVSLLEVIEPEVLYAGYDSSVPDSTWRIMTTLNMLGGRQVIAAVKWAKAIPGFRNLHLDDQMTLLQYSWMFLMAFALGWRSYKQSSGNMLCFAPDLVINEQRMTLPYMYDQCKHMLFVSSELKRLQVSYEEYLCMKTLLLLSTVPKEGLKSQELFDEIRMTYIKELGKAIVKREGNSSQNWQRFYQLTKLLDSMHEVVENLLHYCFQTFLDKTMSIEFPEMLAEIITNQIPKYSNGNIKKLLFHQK
Experimental: Certain antiprogestins were tested in receptor-binding assays for their ability to bind rabbit progesterone receptor (rbPR) and glucocorticoid receptor (rbGR). […] For PR binding, the cytosol was incubated with 6 nM 1,2-[^3H]progesterone (50.0 Ci/mmole) and competitors were added at concentrations from 2 to 100 nM. For binding to GR, the cytosol was incubated with 6 nM 6,7-[^3H]-dexamethasone (40 Ci/mmol) and test compounds were added at concentrations from 20 to 100 nM. After overnight incubation at 4° C., bound and unbound [^3H] steroids were separated by addition of dextran-coated charcoal and centrifugation at 2100×g for 15 min at 4
C. Supernatants containing the [3H]-steroid receptor complexes were decanted into vials containing 4 ml Optifluor (Packard Instrument Co.), vortexed, equilibrated in a liquid scintillation counter for 30 minutes and then counted for 2 minutes. […] The standards for the PR and GR assays were unlabeled progesterone and dexamethasone, respectively.

SMILES	toxicity by animal weight, treated vs. control (in words) [1]	anti-glucocorticoid receptor activity / glucocorticoid receptor binding (in words) [2]
COCC(=O)[C@@]1(OC(C)=O)CC[C@H]2[C@@H]3CCC4=CC(=O)CCC4=C3[C@@H](c3ccc(N(C)C)cc3)C[C@@]21C [CDB-4124, 21-methoxy-17α-acetoxy-11β-(4 N,N-dimethylaminophenyl)-19-norpregna-4,9-diene-3,20-dione]	not toxic, even at a high dose level	–
CC#C[C@]1(O)CC[C@H]2[C@@H]3CCC4=CC(=O)CCC4=C3[C@@H](c3ccc(N(C)C)cc3)C[C@@]21C [RU 486, mifepristone, reference compound]	–	moderately active in glucocorticoid receptor binding
